Data set [1] deals with nasopharyngeal carcinoma cell line, CNE2. The experiment in a line: Blocking test in phage counting assay (35 peptide blocks phage 35 binding). As to conditions: FIG. 1B. Format: cell-based. The protocol: The phage counting assay was conducted to first test the binding ability of phage 35 to nasopharyngeal carcinoma cell line, CNE2 and then test whether the 35 peptide can block the binding of the phage 35 to CNE2. The process will be described in detail hereinafter. • 1) Trypsinizing cells, counting to obtain 1.0*10^6 cells/tube, and re-suspending cells with 200 μl RPMI (Roswell Park Memorial Institute) 1640 medium; • 2) For the blocking test, adding the 35 peptide at a corresponding concentration and incubating on ice for 30 minutes (the binding assay skips this step and directly goes to the third step); • 3) Adding 1.0*10^8 phages, and incubating on ice for binding for one hour; • 4) After washing with 1 ml PBS (Phosphate Buffered Saline), the resulting products were centrifuged at 400 g force for 5 min; repeating this step three times; • 5) Re-suspending the precipitate with 1 ml TBS (Tris Buffered Saline), diluting the resulting suspension liquid 10^3-10^4 fold, and only taking 100 μl for phage count assay; • 6) Inoculating BL21 competent cell for T7 phage with 1:100 v/v, then shaking at 200 RPM at 37° C. for four hours until OD600 (Optical Density at a wavelength of 600 nm) reaches 0.5-1.0 when the bacteria are on the logarithmic phase. […] The titer of phage was calculated based on the diluted factors.

In data set [2] the test system is CNE2. The experiment in a line: Apoptosis by Cleaved Caspase 3/7 kit, flow cytometry. In kind it is cell-based. Particulars: FIG. 6A. The protocol:
(§1) Therapeutic effects of 35-AP peptide were assessed by Cleaved Caspase 3/7 kit. Detailed steps were as followed: • 1) After the cells were planked for 24 hours, the peptide dissolved by 1640 was incubated with cells at 37° C. for four hours; • 2) Trypsinizing cells with TrypLE Expression, counting and adjusting the concentration to 1.0*10^6 cells/ml, and transferring 300 μl into flow cytometry tube; • 3) Adding 10 μl 30*FLICA working solution; • 4) Incubating the cells at 37° C. with 5% CO2 for one hour, and mixing once every 15 minutes; • 5) Washing with 2 ml Washing buffer, then centrifuging at 400 g force for 5 minutes; • 6) Re-suspending the precipitate with 1 ml Washing buffer; • 7) Detecting the staining signal using flow cytometer.

In a further data set the test system is nasopharyngeal carcinoma. The experiment in a line: Near-infrared fluorescence imaging of tumor, small animal imaging. In kind it is in vivo, BALB/C nude mice. As to conditions: 24 hours after intravenous injection. As to the method:
(§2) Cy5-35 peptide distribution was examined in the different organs and tumors of nude mice. Small animal imaging assay was operated as followed: • 1) Using nine 4-week-old BALB/C nude mice; • 2) Trypsinizing cells, counting and adjusting the concentration to 1.0*10^6 cells/ml, and re-suspending cells with 200 μl RPMI 1640 medium containing 20% Matrigel, then subcutaneously injecting into the nude mice; • 3) Observing and measuring the size of tumor after 1-2 weeks. Based on the tumor size, the mice were randomly divided into three groups (PBS, Cy5-Control and Cy5-35, 3 mice in each group); • 4) Intravenously injecting 200 μl PBS or 300 μg fluorescence peptide dissolved in 200 μl PBS; the peptide distribution is detected in both normal organs and tumor using Caliper IVIS Lumina II; • 5) Obtaining normal organs and the tumor tissues, homogenizing them, and calculating the fluorescence intensity of normal organs and the tumor for statistical analysis.

The subject of data set [3] is nasopharyngeal carcinoma cells CNE2. The experiment in a line: Flow cytometry analysis of cell penetration. Particulars: 37° C. two hours; FIG. 2B. In kind it is cell-based. An excerpt: The flow cytometry analysis was applied to detect whether phage 35 can penetrate the nasopharyngeal carcinoma cells CNE2.
A general note: Flow cytometry measures light scatter and fluorescence of single cells or particles in a stream.

Another data set has as its system MDA-MB-231. The experiment in a line: Near-infrared fluorescence imaging in MDA-MB-231 nude mice model. Format: in vivo. Particulars: FIG. 4D. The protocol:
as §2
To detect whether Cy5-35 peptide can apply to other tumors, the peptides were applied to MDA-MB-231 nude mice model.

For data set [4], the system named is tumor vessels and tumor cells. The experiment in a line: Targeting and penetrating tumor vessels and tumor cells, frozen section and immunohistochemical assay. As to conditions: 300 μg. In kind it is in vivo, BALB/C nude mice. As to the method: Cy5-35 peptide is tested to target and penetrate the vessels using the frozen section and immunohistochemical assay. Detailed steps were as followed: • 1) Using nine 4-week-old BALB/C nude mice • 2) Trypsinizing cells, counting and adjusting the concentration to 1.0*10^6 cells/ml, and re-suspending cells with 200 μl RPMI 1640 medium containing 20% Matrigel, then subcutaneously injecting into the nude mice; • 3) Observing and measuring the size of tumor after 1-2 weeks. Based on the tumor size, the mice were randomly divided into three groups (PBS, Cy5-Control and Cy5-35, three mice in each group); • 4) Intravenously injecting 200 μl PBS or 300 μg fluorescence peptide dissolved in 200 μl PBS; • 5) Obtaining the tumor tissues, and making frozen sections and cutting slides, storing at −80° C.; • 6) Fixing the slides in cooled acetone for 10 min, washing 5 times with PBS for 5 minutes; • 7) Soaking the slides with 3% H2O2 to remove endogenous peroxidase and then washing 3 times with 1 ml PBS for 5 minutes; • 8) Blocking with 10% BSA for 20 minutes at room temperature; • 9) Incubating with anti-CD31 mouse first antibody at 4° C. overnight; • 10) Washing 3 times with PBS for 5 minutes; • 11) Incubating anti-mouse FITC second antibody at room temperature for one hour, keeping it away from light, and then washing 3 times with 1 ml PBS for 5 min; • 12) Adding DAPI at room temperature and keeping for 5 minutes and then washing 3 times with 1 ml PBS for 5 minutes; • 13) Covering the slides with anti-fade, then observing the slides under the laser confocal microscope

Data set [5] concerns nasopharyngeal carcinoma cell CNE2. Put plainly: Flow cytometry analysis of binding of Cy5-35 peptide. In kind it is cell-based. As to conditions: 5 μM or 10 μM, on ice 30 minutes; FIG. 1C. The protocol: Flow cytometry analysis was applied to detect the binding affinity of Cy5-35 peptide to nasopharyngeal carcinoma cell CNE2. Firstly, the 35 peptide and control peptides separately coupled with fluorescent dye Cy5 were synthesized. Then, Cy5-35 peptide were incubated with cells. At the end, the binding efficacy was calculated using the flow cytometry analysis. Detailed steps were as followed: • 1) Trypsinizing cells, counting and adjusting the concentration to 1.0*10^6 cells/tube, and re-suspending cells with 200 μl RPMI 1640 medium; • 2) Adding Cy5-Control peptide or Cy5-35 peptide dissolved with PBS at a concentration of 5 μM or 10 μM, then incubating on ice for 30 minutes. • 3) Washing with 1 ml PBS, then centrifuging at 400 g force for 5 minutes; repeating this step twice; • 4) Re-suspending the precipitate with 1 ml TBS, • 5) Conducting the flow cytometry analysis.

For data set [6], the system named is CNE2. The experiment in a line: Cleaved Caspase3 cellular immunofluorescence assay. Format: cell-based. As to conditions: incubated with CNE2; FIG. 6C.
The test system of data set [7] is CNE2 cells. The experiment in a line: Therapeutic effect of 35-AP peptide in tumor-bearing mice. Format: in vivo, BALB/C nude mice. Particulars: 200 μg intravenously every other day 6 times, compared with two control groups, FIG. 6E. The protocol: Injecting 35-AP peptide to tumor-bearing mice to detect its therapeutic effect. Detailed steps were as follows: • 1) Selecting twenty four 4-week-old BALB/C nude mice; • 2) Trypsinizing CNE2 cells, counting and adjusting the concentration to 1.0*10^6 cells/ml, and re-suspending cells with 200 μl RPMI 1640 medium containing 20% Matrigel, then subcutaneously injecting 200 μl re-suspended cells into the nude mice; • 3) Observing and measuring the size of tumor after 1-2 weeks. Based on the tumor size, the mice were randomly divided into three groups (PBS, Control AP and 35-AP); • 4) Intravenously injecting 200 μl PBS or 200 μg fluorescence peptide dissolved in 200 μl PBS every other day for 6 times in total. Measuring the length and width of tumor before and after injection. The volume of tumor=0.52*(length*width*width); • 5) Performing statistical analysis of the size of tumors.

A further data set concerns 5-8F. The experiment in a line: Apoptosis by Cleaved Caspase 3/7 kit, flow cytometry. In kind it is cell-based. As to conditions: FIG. 6B. As to the method:
as §1

In the next data set the test system is SUNE1. The data set is described as above. Format: cell-based. As to conditions: FIG. 6B. As to the method: as §1
The test system of a further data set is HONE1. The data set is described as above. In kind it is cell-based. Particulars: FIG. 6B. The protocol:
as §1

For a further data set, the system named is CNE1. The data set is described as above. In kind it is cell-based. As to conditions: FIG. 6B. As to the method: as §1
The subject of data set [8] is CNE2 cells. Particulars: 37° C. two hours.
Procedure: The cellular immunofluorescence assay was applied to detect whether Biotin-35 peptide can penetrate CNE2 cells. Detailed steps were as followed: • 1) Incubating Biotin-35 peptide or Biotin-control peptide with cells at 37° C. for two hours; • 2) Washing three times with 1 ml PBS for 5 minutes; • 3) Fixing the cells with 4% paraformaldehyde for 10 minutes; • 4) Incubating cells with 0.1% Triton-X100 for 5 minutes; • 5) Blocking with 5% BSA for 30 minutes; • 6) Washing with 1 ml PBS twice; • 7) Adding FITC-streptavidin and avoiding light for one hour; • 8) Washing three times with 1 ml PBS for 5 minutes; • 9) Adding DAPI at a ratio of 1:2000 and keeping it away from light at room temperature for 5 minutes, • 10) Washing with 1 ml PBS for 5 minutes, • 11) Mounting samples with Anti-fade, and observing the samples under the laser confocal microscope.
Where [9] appears, read: 2 h after intravenous injection, FIG. 3B.

Here are results for six compounds from US9809622B2, “Tumor-targeting polypeptide and application thereof” (Sun Yat-sen University Cancer Center, priority 2013, dated 2017).

Positions of bridges follow the written chain, without caps; N, C: chain ends. Non-standard residues stand in square brackets, D forms with d. Residues, ends and D or L forms follow the SMILES beside them. No end group written: not given here. *: point of attachment. Biotin = O=C1N[C@H]2[C@H](CS[C@H]2CCCCC(=O)*)N1

For CRWYDENAC (disulfide 1-9) [35 peptide], the “blocking of phage 35 binding to CNE2” value in data set [1] is “prevents phage 35 from binding to CNE2 in a dose-dependent manner”. In addition, the “apoptosis in CNE2” value in the data set with CNE2 [2] was “cannot induce the apoptosis in CNE2”.

Regarding “D (KLAKLAKKLAKLAK-GG-CRWYDENAC) (KLAKLAKKLAKLAKGGCRWYDENAC; D-amino acids) [(35-AP)D]”, the “apoptosis in CNE2” value in the data set on CNE2 [2] is listed as “also activated the apoptosis of CNE2”.

As to “Cy5-CRWYDENAC (disulfide 1-9) [Cy5-35 peptide]”, in the data set on nasopharyngeal carcinoma (FIG. 4A), the “enrichment in tumor (NIR imaging)” value is “significantly enriched in tumor”. For the same compound, the “residual peptide in lung (NIR imaging)” value in the data set with nasopharyngeal carcinoma (FIG. 4B) is reported as “certain residual peptides in lung”. The “intensity of fluorescence in tumor versus other organs” value with nasopharyngeal carcinoma (FIG. 4C) is on record as “significantly stronger than that in other organs”. In data set [3], the “penetration into CNE2 (flow cytometry)” value is given as “penetrates into CNE2 in a dose-dependent manner”. Moreover, the breast cancer imaging result with MDA-MB-231 is on record as “can also be applied in breast cancer imaging”. In addition, the “co-localization with vessel marker CD31 in tumor” value is recorded as “co-localized with vessel marker CD31” in data set [4] (setting [9]) and “co-localized with vessel marker CD31” in data set [4] (half an hour after intravenous injection, FIG. 3A). Besides, in data set [4] (setting [9]), the “penetration of tumor vessels and tumor cells” value is “part of Cy5-35 peptides penetrated the tumor vessels and tumor cells”. In [5], the “binding to CNE2 cells (flow cytometry)” value is “binds to CNE2 cells in a dose-dependent manner”.

As for `CC(C)C[C@@H](NC(=O)[C@H](N)CCCCN)C(=O)N[C@H](C)C(=O)N[C@H](CCCCN)C(=O)N[C@H](CC(C)C)C(=O)N[C@H](C)C(=O)N[C@H](CCCCN)C(=O)N[C@H](CCCCN)C(=O)N[C@H](CC(C)C)C(=O)N[C@H](C)C(=O)N[C@H](CCCCN)C(=O)N[C@H](CC(C)C)C(=O)N[C@H](C)C(=O)N[C@H](CCCCN)C(=O)NCC(=O)NCC(=O)N[C@H]1CSSC[C@@H](C(=O)O)NC(=O)[C@H](C)NC(=O)[C@H](CC(N)=O)NC(=O)[C@H](CCC(=O)O)NC(=O)[C@H](CC(=O)O)NC(=O)[C@H](Cc2ccc(O)cc2)NC(=O)[C@H](Cc2c[nH]c3ccccc23)NC(=O)[C@H](CCCNC(=N)N)NC1=O` [35-AP peptide, D (KLAKLAKKLAKLAK)-GG-CRWYDENAC] (H-[dK][dL][dA][dK][dL][dA][dK][dK][dL][dA][dK][dL][dA][dK]GGCRWYDENAC-OH; disulfide 17-25 (inferred); N-terminus and C-terminus assumed), the “cleaved Caspase3 activation” value in the data set with CNE2 [6] was “cleaved Caspase3 was activated”. Besides, the tumor volume entry in the data set with CNE2 cells [7] is listed as “reduced the tumor volume markedly”. The “cell apoptosis in 5-8F” value with 5-8F was “also led to cell apoptosis”. Moreover, the “cell apoptosis in SUNE1” value with SUNE1 is “also led to cell apoptosis”. Also, in the data set with HONE1, the “cell apoptosis in HONE1” value is listed as “also led to cell apoptosis”. The “apoptosis in CNE2” value with CNE2 [2] is given as “can significantly promote the apoptosis”. Further, in the data set on CNE1, the “cell apoptosis in CNE1” value was “also led to cell apoptosis”.

Take “Biotin-CRWYDENAC (cysteine pairing not given here) [Biotin-35 peptide]”: the “penetration into CNE2 (cellular immunofluorescence)” value in the data set on CNE2 cells [8] is “is able to penetrate into CNE2”.

“D (KLAKLAKKLAKLAK) (D-amino acids) [AP peptide, reference compound]”: in the data set on CNE2 [2], the “apoptosis in CNE2” value was “cannot induce the apoptosis in CNE2”.
